Here are results for 16 compounds from publication PMC8434401, “Trifluoromethylated Flavonoid-Based Isoxazoles as Antidiabetic and Anti-Obesity Agents: Synthesis, In Vitro α-Amylase Inhibitory Activity, Molecular Docking and Structure–Activity Relationship Analysis” (Molecules, 2021).

For data set [1], the target named is Aspergillus oryzae α-amylase (Aspergillus oryzae, UniProt P0C1B3). The experiment in a line: biochemical. The settings on record: for inhibition at 50 µM: read-out: α-Amylase Inhibition PI ± SEM% (percentage inhibition). As to the method: The α-amylase inhibition assays were carried out according to the protocol described by Chortani et al. (2021), with some modifications. In short, all of the compounds were dissolved in DMSO and then diluted in sodium phosphate buffer (0.02 M, pH 6.9 with 0.006 M NaCl). […] The samples were tested at different concentrations of 50, 25, 12.5, and 6.25 μM. After that, 50 μL of the sample solution was added to 50 μL of Aspergillus oryzae α-amylase solution (0.5 mg/mL) dissolved in the same buffer medium. After pre-incubation for 10 min at 25 °C, 50 μL of starch solution (1% in buffer solution) was added to the mixture. After 10 min of incubation at 25 °C, the product of the reaction was mixed with 100 μL of 3,5-dinitrosalicylic acid solution. At this point, the test tubes were placed for 5 min in a boiling water bath (100 °C), followed by cooling to room temperature. Next, each solution was diluted with 1 mL of distilled water. Over time, the absorbance was measured at 540 nm using a Thermo Scientific™ Multiskan™ GO Microplate Spectrophotometer using a 96-well microplate.
The α-amylase inhibitory activity was determined as follows:PI (%) = 100[(AbsControl−AbsSample)/(AbsControl)] where AbsControl is the absorbance of the solution without sample (buffer instead of the sample solution) and AbsSample is the absorbance of the mixture with the solution of the sample to be tested. […] Each assay was conducted in triplicate.

Where [2] appears, read: Table S1, from the concentration-response curves used to calculate the IC50 values (concentrations in μM), read-out: log(IC50) (converted).
Setting [3] is: potency, concentration providing 50% inhibition, mean ± SEM, triplicate, read-out: α-Amylase Inhibition IC50 ± SEM.

Each structure is given as a SMILES string. Like-named read-outs stand apart in the source and are kept apart here.

What is called inhibition is the change of the read-out against control, counted positive when it falls. Usually melting point stands for the temperature, or range, at which the solid turns liquid. What is called IC50 is the concentration that gives 50% inhibition.

As to `C[C@H]1O[C@H](O[C@H]2[C@H](O)[C@@H](O)[C@@H](O[C@H]3[C@H](O)[C@@H](O)C(O)O[C@@H]3CO)O[C@@H]2CO)[C@H](O)[C@@H](O)[C@@H]1N[C@H]1C=C(CO)[C@@H](O)[C@H](O)[C@H]1O` (stereo partly shown) [Acarbose, reference compound], the inhibition at 50 µM in data set [1] is 97.8 ± 0.5%.
For `O=c1c(O)c(-c2ccc(C(F)(F)F)cc2)oc2ccc(Cl)cc12` [Compound 1, 6-Chloro-3-hydroxy-2-(4-(trifluoromethyl)phenyl)-4H-chromen-4-one], the melting point amounted to 275 °C. In data set [1] (setting [2]), the IC50 was 15.3 µM. In addition, in data set [1] (setting [3]), the 50% inhibitory concentration (IC50) stood at 15.3 ± 0.4 µM. In data set [1], the inhibition at 50 µM is 75.2 ± 1.4%.
For `C#CCOc1c(-c2ccc(C(F)(F)F)cc2)oc2ccc(Cl)cc2c1=O` [Compound 2, 6-Chloro-3-(prop-2-yn-1-yloxy)-2-(4-(trifluoromethyl)phenyl)-4H-chromen-4-one], the melting point worked out at 122 °C. Besides, in data set [1] (setting [2]), the IC50 was 17.7 µM. The IC50 in data set [1] (setting [3]) stood at 17.7 ± 0.2 µM. The inhibition at 50 µM in data set [1] came to 75.2 ± 0.3%.
The compound `O=c1c(OCc2cc(-c3ccccc3)no2)c(-c2ccc(C(F)(F)F)cc2)oc2ccc(Cl)cc12` [Compound 3a, 6-Chloro-3-((3-phenylisoxazol-5-yl)methoxy)-2-(4-(trifluoromethyl)phenyl)-4H-chromen-4-one] displayed a melting point of 134 °C. Further, the 50% inhibitory concentration (IC50) in data set [1] (setting [2]) is 27.2 µM. Besides, the IC50 in data set [1] (setting [3]) was 27.2 ± 0.7 µM. In addition, the inhibition at 50 µM in data set [1] stood at 65.6 ± 0.2%.
`O=c1c(OCc2cc(-c3ccc(F)cc3)no2)c(-c2ccc(C(F)(F)F)cc2)oc2ccc(Cl)cc12` [Compound 3b, 6-Chloro-3-((3-(4-fluorophenyl)isoxazol-5-yl)methoxy)-2-(4-(trifluoromethyl)phenyl)-4H-chromen-4-one] had a melting point of 147 °C. The IC50 in data set [1] (setting [2]) was 12.6 µM. Besides, in data set [1] (setting [3]), the IC50 was determined as 12.6 ± 0.2 µM. Also, the inhibition at 50 µM in data set [1] is 94.7 ± 1.2%.
`O=c1c(OCc2cc(-c3ccc(Cl)cc3)no2)c(-c2ccc(C(F)(F)F)cc2)oc2ccc(Cl)cc12` [Compound 3c, 6-Chloro-3-((3-(4-chlorophenyl)isoxazol-5-yl)methoxy)-2-(4-(trifluoromethyl)phenyl)-4H-chromen-4-one] yielded a melting point of 177 °C. Moreover, the IC50 in data set [1] (setting [2]) is 14.4 µM. The IC50 in data set [1] (setting [3]) was 14.4 ± 0.2 µM. The inhibition at 50 µM in data set [1] was found to be 87.1 ± 0.7%.
Taken in the same sequence, the figures for `O=c1c(OCc2cc(-c3ccc(Br)cc3)no2)c(-c2ccc(C(F)(F)F)cc2)oc2ccc(Cl)cc12` [Compound 3d, 3-((3-(4-Bromophenyl)isoxazol-5-yl)methoxy)-6-chloro-2-(4-(trifluoromethyl)phenyl)-4H-chromen-4-one] were 179 °C, 14.6 µM, 14.6 ± 0.3 µM and 85.4 ± 0.9%.
Consider `Cc1ccc(-c2cc(COc3c(-c4ccc(C(F)(F)F)cc4)oc4ccc(Cl)cc4c3=O)on2)cc1` [Compound 3e, 6-Chloro-3-((3-(p-tolyl)isoxazol-5-yl)methoxy)-2-(4-(trifluoromethyl)phenyl)-4H-chromen-4-one], for which the melting point stood at 171 °C. In addition, the IC50 in data set [1] (setting [2]) was 26 µM. Further, in data set [1] (setting [3]), the IC50 stood at 26 ± 0.7 µM. For the same compound, the inhibition at 50 µM in data set [1] was 65.4 ± 0.4%.
As to `CC(C)(C)c1ccc(-c2cc(COc3c(-c4ccc(C(F)(F)F)cc4)oc4ccc(Cl)cc4c3=O)on2)cc1` [Compound 3f, 3-((3-(4-(Tert-butyl)phenyl)isoxazol-5-yl)methoxy)-6-chloro-2-(4-(trifluoromethyl)phenyl)-4H-chromen-4-one], the melting point came to 112 °C. Also, the IC50 in data set [1] (setting [2]) is 27.6 µM. Further, the IC50 in data set [1] (setting [3]) turned out to be 27.6 ± 1.1 µM. In addition, the inhibition at 50 µM in data set [1] was determined as 64.5 ± 0.7%.
For the compound `O=c1c(OCc2cc(-c3ccc([N+](=O)[O-])cc3)no2)c(-c2ccc(C(F)(F)F)cc2)oc2ccc(Cl)cc12` [Compound 3g, 6-Chloro-3-((3-(4-nitrophenyl)isoxazol-5-yl)methoxy)-2-(4-(trifluoromethyl)phenyl)-4H-chromen-4-one], the melting point is 175 °C. In addition, the IC50 in data set [1] (setting [2]) is 18.1 µM. In addition, the IC50 in data set [1] (setting [3]) is 18.1 ± 0.3 µM. Further, the inhibition at 50 µM in data set [1] came to 74.7 ± 0.3%.
Turning to `COc1ccc(-c2cc(COc3c(-c4ccc(C(F)(F)F)cc4)oc4ccc(Cl)cc4c3=O)on2)cc1` [Compound 3h, 6-Chloro-3-((3-(4-methoxyphenyl)isoxazol-5-yl)methoxy)-2-(4-(trifluoromethyl)phenyl)-4H-chromen-4-one], the melting point was found to be 152 °C. For the same compound, the IC50 in data set [1] (setting [2]) is 13.3 µM. Besides, the IC50 in data set [1] (setting [3]) worked out at 13.3 ± 0.2 µM. In data set [1], the inhibition at 50 µM came to 93.5 ± 1.1%.
On to `CCCCOc1ccc(-c2cc(COc3c(-c4ccc(C(F)(F)F)cc4)oc4ccc(Cl)cc4c3=O)on2)cc1` [Compound 3i, 3-((3-(4-Butoxyphenyl)isoxazol-5-yl)methoxy)-6-chloro-2-(4-(trifluoromethyl)phenyl)-4H-chromen-4-one], for which the melting point turned out to be 130 °C. Also, the IC50 in data set [1] (setting [2]) was 15.6 µM. In data set [1] (setting [3]), the IC50 is 15.6 ± 0.2 µM. The inhibition at 50 µM in data set [1] was 79.4 ± 1%.
Compound `CCCCOc1ccc(-c2cc(COc3c(-c4ccc(C(F)(F)F)cc4)oc4ccc(Cl)cc4c3=O)on2)cc1Cl` [Compound 3j, 3-((3-(4-Butoxy-3-chlorophenyl)isoxazol-5-yl)methoxy)-6-chloro-2-(4-(trifluoromethyl)phenyl)-4H-chromen-4-one] came in with a melting point of 134 °C. Further, the IC50 in data set [1] (setting [2]) was 13.7 µM. For the same compound, the IC50 in data set [1] (setting [3]) was determined as 13.7 ± 0.2 µM. Besides, the inhibition at 50 µM in data set [1] turned out to be 93.1 ± 0.9%.
Consider `COc1ccc(-c2cc(COc3c(-c4ccc(C(F)(F)F)cc4)oc4ccc(Cl)cc4c3=O)on2)cc1Cl` [Compound 3k, 6-Chloro-3-((3-(3-chloro-4-methoxyphenyl)isoxazol-5-yl)methoxy)-2-(4-(trifluoromethyl)phenyl)-4H-chromen-4-one], for which the melting point was determined as 141 °C. For the same compound, the IC50 in data set [1] (setting [2]) was 21 µM. The IC50 in data set [1] (setting [3]) was 21 ± 0.6 µM. In addition, the inhibition at 50 µM in data set [1] was determined as 72.5 ± 1.1%.
As for `COc1ccc(-c2cc(COc3c(-c4ccc(C(F)(F)F)cc4)oc4ccc(Cl)cc4c3=O)on2)cc1Br` [Compound 3l, 3-((3-(3-Bromo-4-methoxyphenyl)isoxazol-5-yl)methoxy)-6-chloro-2-(4-(trifluoromethyl)phenyl)-4H-chromen-4-one], the melting point is 144 °C. Besides, in data set [1] (setting [2]), the IC50 was 23 µM. For the same compound, the IC50 in data set [1] (setting [3]) amounted to 23 ± 0.2 µM. The inhibition at 50 µM in data set [1] is 70.4 ± 0.4%.
Regarding `COc1ccc(-c2cc(COc3c(-c4ccc(C(F)(F)F)cc4)oc4ccc(Cl)cc4c3=O)on2)cc1OC` [Compound 3m, 6-Chloro-3-((3-(3,4-dimethoxyphenyl)isoxazol-5-yl)methoxy)-2-(4-(trifluoromethyl)phenyl)-4H-chromen-4-one], the melting point turned out to be 152 °C. Moreover, the IC50 in data set [1] (setting [2]) is 13.8 µM. For the same compound, in data set [1] (setting [3]), the IC50 was determined as 13.8 ± 0.1 µM. For the same compound, the inhibition at 50 µM in data set [1] was 93.3 ± 2%.
